{"source": "patent US20250352524A1", "about": "“PREVENTION OF METASTATIC OUTGROWTH USING TEAD INHIBITORS” (Georgetown University, priority 2024, published 2025)", "key": {"[1]": {"test_system": "E0771 mammary carcinoma cells", "assay": "E0771 mammary fat pad tumors in C57/BL6 mice, lung metastasis and lung immune profiling", "type": "in vivo", "details": "for primary tumor growth / size: 30 mg/kg daily oral gavage from palpable tumors (3 weeks), resection at week 4; for lung metastases (number of mice / incidence): 30 mg/kg daily vs vehicle, H&E lung sections", "procedure": "In this study, E0771 mammary carcinoma cells were injected into the MFP of C57/BL6 mice. Treatment for this group started after tumors were palpable at 3-4 weeks. Similarly, no effect was observed on the primary tumor growth, yet lung metastases were decreased (FIG. 3, Panels A and B). […] Additionally, lung infiltrating CD8+ T-cells increased in iTEAD-treated mice (FIG. 3, Panel D).\nE0771 cells were injected into the mammary fat pad of C57BL/6 mice (Johnstone et al., 2015). When primary tumors became palpable at 3 weeks, mice were treated daily with VT107 or vehicle control. Mice weights were monitored throughout treatment (FIG. 8, Panel B). Primary tumors were surgically resected at week 4 and mice were euthanized at week 6 to inspect lungs for metastases (FIG. 9, Panel A)\nThere was no difference in the primary tumor size between treatment groups nor the size of recurrent tumors at 6 weeks (FIG. 9, Panel B and FIG. 8, Panel C). […] To investigate tissue specific effects, gene expression changes between treatment groups in lung and tumor tissues were analyzed by RNA-sequencing. […] To reduce the impact of TEAD inhibition on cancer cell intrinsic function such as dissemination and invasion, 4T1, a triple negative mouse mammary carcinoma cell line (Pulaski & Ostrand-Rosenberg, 2000), was injected into the tail vein of BALB/c mice that directly seed into the lung tissue. A reduction in lung metastases, as well as the suppression of inflammatory pathways, were observed (FIG. 9, Panels E and F, and FIG. 8, Panel F).\nFormalin-fixed, paraffin embedded (FFPE) lung tissue sections were stained with hematoxylin and eosin. Immunohistochemistry staining was performed on FFPE tumor and lung tissue sections. Slides were deparaffinized in xylene and rehydrated following a series of ethanol washes. Heat-induced antigen retrieval was then performed by placing slides in warmed sodium citrate buffer (pH 6.0) (Invitrogen, 005000) in a pre-heated steamer for 20 minutes. Slides were cooled at room temperature for an additional 20 minutes, prior to quenching endogenous peroxidase activity using 3% hydrogen peroxide buffer (Fisher, BP2633500) for 10 minutes. Next, slides were incubated overnight at 4° C. with either anti-CD8 (Cell Signaling Technology, #98941), anti-CD68 (Abcam, ab303565), anti-CD206 (Cell Signaling Technology, #24595), or anti-F480 (Cell Signaling Technology, #70076). Following PBS washes, the slides are then stained with a biotinylated secondary antibody using the VECTASTAIN Elite ABC-HRP Kit according to the user's manual (Vector Laboratories, PK-6101). Positive brown staining was produced by applying ImmPACT DAB EqV Substrate Kit (Vector Laboratories, SK-4103) to the slides, which were then counterstained with hematoxylin (Sigma, MHS16). Images were captured using the Olympus BX40 microscope, and positive staining was quantified manually. Immunofluorescent staining was performed on lung tissue sections. Slides were baked at 60°, deparaffinized in xylene, rehydrated, washed in DI water and incubated with 10% neutral buffered formalin (NBF) for an additional 20 minutes to increase tissue-slide retention. Epitope retrieval/microwave treatment (MWT) for all antibodies was performed by boiling slides in Antigen Retrieval buffer 6 (AR6 pH6, Akoya AR6001KT). Protein blocking is performed using antibody diluent/blocking buffer (Akoya, ARD1001EA) for 10 minutes at room temperature. Slides were incubated with Luciferase antibody (Sigma, #L0159) for 1 hour and OPAL Fluoresce 620 then counterstained with spectral DAPI (Akoya FP1490) for 5 min and mounted with ProLong Diamond Antifade (ThernoFisher, P36961). Slides were scanned at 10× magnification using the Vectra 3.0 Automated Quantitative Pathology Imaging System (PerkinElmer/Akoya).\nSingle cell suspensions were washed 2× with PBS. […]"}, "[2]": {"test_system": "peritoneal macrophages and T-cells", "assay": "Cytokine array, pretreated peritoneal macrophages mixed with T-cells", "type": "cell-based, mouse", "description": "To investigate whether the effect of iTEAD treatment on macrophages can enhance their crosstalk with T-cells in the lung microenvironment, peritoneal macrophages+/−iTEAD were first isolated and characterized as a model of resident macrophages for ex vivo experiments (FIG. 14, Panel A). It was observed that treatment with VT107 decreased gene expression of M2-like and fibrosis regulators, Aldh1a1 and Cc117 (Chen et al., 2020), as well as TEAD4 and its downstream target gene Ankrd1. […] The iTEAD pretreated peritoneal macrophages and untreated T-cells isolated from the spleen of tumor naïve mice (FIG. 14, Panel A) were then mixed for 5 hours before collecting the conditioned media for analysis. […] Next, these immune cell mixes were added to 4T1 spheres that were embedded into matrix. […] This effect was reversed by an IL12 neutralizing antibody. No change in cleaved caspase-3 in 4T1 cells in the presence of VT107-treated T-cells or macrophages alone, was detected at 24 hours (FIG. 14, Panels C and D). 4T1 cells were then plated and allowed to attach on electrode-coated arrays to monitor cancer cell viability before the addition of macrophages+/−iTEAD and T-cells. […] This reversal of T-cell cytotoxicity by IL12 antibodies was not observed in VT107-treated T-cells in the absence of macrophages (FIG. 15, Panel E) indicating a critical role for IL12 in the crosstalk between macrophages and T-cells.\nCells were grown in their recommended cell culture media and treated with […] VT107 for 24 or 72 hours. Conditioned media was collected and passed through a 0.2 micron PES filter then analyzed on a RayBio® Mouse Cytokine Array (#AAM-TCR-1) according to the manufacture's protocol. The array includes two spots for each cytokine. The luminescence signal was normalized to the positive control on each membrane, then to the vehicle treatment signal of each cytokine."}, "[3]": {"details": "flow cytometry, tumor bearing mice"}, "[4]": {"details": "flow cytometry, tumor bearing mice, listed as iTEAD"}, "[5]": {"details": "macrophages pretreated 24 hrs with 1 μM VT107, mixed with untreated T-cells 5 hours"}, "[6]": {"details": "treated overnight with 1 μM VT107"}}, "note": "“Also recorded” adds a separate entry of the source.", "data": [{"substance": "VT107", "values": [{"measurement": "primary tumor growth / size", "setting": "[1]", "value": "no difference"}, {"measurement": "primary tumor growth / size", "setting": "[1]; listed as iTEAD", "value": "no effect; also recorded: no change"}, {"measurement": "lung metastases (number of mice / incidence)", "setting": "[1]", "value": "significantly less incidence"}, {"measurement": "lung metastases (number of mice / incidence)", "setting": "[1]; listed as iTEAD", "value": "decreased; also recorded: reduced"}, {"measurement": "number of CD8+ T-cells in lung tissue", "setting": "[1]; CD8 immunohistochemistry, tumor bearing mice, listed as iTEAD", "value": "increase in the number and infiltration; also recorded: significantly greater"}, {"measurement": "CD8+ T-cells in lung metastatic lesions", "setting": "[1]; CD8 immunohistochemistry, listed as iTEAD", "value": "infiltrated into lung metastases"}, {"measurement": "number of gene changes due to treatment, lungs compared to primary tumors", "setting": "[1]; RNA-sequencing", "value": "higher number"}, {"measurement": "size of recurrent tumors", "setting": "[1]; at 6 weeks, 2 weeks after resection", "value": "no difference"}, {"measurement": "CD86 (M1-like) in the lung macrophage population", "setting": "[1]; [3]", "value": "significantly enriched"}, {"measurement": "CD86/CD206 shift in the alveolar macrophage population", "setting": "[1]; [3]", "value": "also significant"}, {"measurement": "CD206 (M2-like) in the lung macrophage population", "setting": "[1]; [3]", "value": "significantly reduced"}, {"measurement": "infiltrating macrophages / monocytes in the lungs", "setting": "[1]; [4]", "value": "significant decrease"}, {"measurement": "lung infiltrating CD8+ T-cells", "setting": "[1]; [4]", "value": "increased; also recorded: higher numbers"}, {"measurement": "resident alveolar macrophages in the lungs", "setting": "[1]; [4]", "value": "higher frequency; also recorded: significant increase"}, {"measurement": "LXR/RXR anti-inflammatory pathway in lung tissues", "setting": "[1]; pathway analysis", "value": "increased"}, {"measurement": "disease-related inflammation pathways (hepatic and lung fibrosis, cardiac hypertrophy) in lung tissues", "setting": "[1]; pathway analysis", "value": "decrease"}, {"measurement": "IL6 level in the cell mix", "setting": "[2]; [5]", "value": "significantly increased"}, {"measurement": "IL12 level in the cell mix", "setting": "[2]; [5]", "value": "significantly increased"}, {"measurement": "IL4 in T-cells", "setting": "[2]; [6]", "value": "slightly increased"}, {"measurement": "IL12 or IL6 levels in macrophages or T-cells alone", "setting": "[2]; [6]", "value": "No significant change"}]}]}
